For 2 compounds, MIC and ED50 results are on record in patent US4639433A, “Glycopeptide derivatives” (Eli Lilly and Company, priority 1985, dated 1987).

Structures are written as SMILES. ≈ marks a conversion by molar mass, not a printed value.

One experiment concerns Escherichia coli N10. To be noted: agar dilution.
The subject of a further experiment is Streptococcus pyogenes. The experiment can be described thus: Experimental bacterial infection in mice, ED50. It is filed as in vivo. The following applies: two doses, administered subcutaneously.
Experiment [1] has as its system Staphylococcus aureus S13E. To be noted: agar dilution.
For experiment [2], the system named is Klebsiella pneumoniae X26. The following applies: agar dilution.
For a further experiment, the system named is Staphylococcus aureus. The experiment can be described thus: Experimental bacterial infection in mice, ED50. It is filed as in vivo. To be noted: two doses, administered subcutaneously.
Experiment [3] concerns Haemophilus influenzae 76. The following applies: agar dilution.
Experiment [4] concerns Klebsiella pneumoniae KAE. The following applies: agar dilution.
Experiment [5] has as its system Staphylococcus epidermidis EPI1. The following applies: agar dilution.
Experiment [6] has as its system Staphylococcus aureus X400. To be noted: agar dilution.
In experiment [7] the test system is Staphylococcus aureus V41. The following applies: agar dilution.
Experiment [8] deals with Streptococcus sp. group D 2041. The following applies: agar dilution.
For experiment [9], the system named is Streptococcus pneumoniae Park 1. The following applies: agar dilution.
A further experiment has as its system Escherichia coli TEM. To be noted: agar dilution.
The subject of experiment [10] is Haemophilus influenzae C.L. The following applies: agar dilution.
A further experiment concerns Escherichia coli EC14. The following applies: agar dilution.
The test system of experiment [11] is Klebsiella pneumoniae X68. To be noted: agar dilution.
For experiment [12], the system named is Streptococcus faecium ATCC 9790. To be noted: agar dilution.
The subject of experiment [13] is Staphylococcus aureus NRRL B313. The following applies: agar dilution.
For a further experiment, the system named is Streptococcus pneumoniae. The experiment can be described thus: Experimental bacterial infection in mice, ED50. The format is in vivo. The following applies: two doses, administered subcutaneously.
Experiment [14] concerns Staphylococcus epidermidis 222. To be noted: agar dilution.
The subject of experiment [15] is Streptococcus pyogenes C203. The following applies: agar dilution.

In the case of `CCCCCCCCCCCCCC(=O)NC1(C)CC(OC2C(Oc3c4cc5cc3Oc3ccc(cc3Cl)C(O)C3NC(=O)C(NC(=O)C5NC(=O)C(CC(N)=O)NC(=O)C(NC(=O)C(CC(C)C)NC)C(O)c5ccc(c(Cl)c5)O4)c4ccc(O)c(c4)-c4c(O)cc(O)cc4C(C(=O)O)NC3=O)OC(CO)C(O)C2O)OC(C)C1O` (stereo not drawn) [Compound 14, N^van --(1-oxo-n-tetradecyl)vancomycin], the MIC entry against Escherichia coli N10 is “-- (not active at 128 mcg/ml)”; in [1], 0.5 µg/mL (≈ 0.301 µM); in experiment [2] it was “-- (not active at 128 mcg/ml)”; in experiment [3], 128 µg/mL (≈ 77.1 µM); in experiment [4], “-- (not active at 128 mcg/ml)”; in [5], 8 µg/mL (≈ 4.82 µM). The MIC is 2 µg/mL (≈ 1.21 µM) in experiment [6]; 2 µg/mL (≈ 1.21 µM) in experiment [7]; 0.5 µg/mL (≈ 0.301 µM) in experiment [8]; 2 µg/mL (≈ 1.21 µM) in [9]; “-- (not active at 128 mcg/ml)” in the experiment with Escherichia coli TEM; 128 µg/mL (≈ 77.1 µM) in experiment [10]. Further, the MIC result in the experiment on Escherichia coli EC14 is “-- (not active at 128 mcg/ml)”; in experiment [11] it was “-- (not active at 128 mcg/ml)”; in experiment [12], 0.5 µg/mL (≈ 0.301 µM); in experiment [13], 2 µg/mL (≈ 1.21 µM); in experiment [14], 2 µg/mL (≈ 1.21 µM); in [15] it was 2 µg/mL (≈ 1.21 µM). The ED50 in the experiment with Streptococcus pyogenes is 1.4 mg/kg/2; in the experiment with Staphylococcus aureus, 6.6 mg/kg/2; in the experiment on Streptococcus pneumoniae, 1.3 mg/kg/2.
Consider `CCCCCCCC(=O)NC1(C)CC(OC2C(Oc3c4cc5cc3Oc3ccc(cc3Cl)C(O)C3NC(=O)C(NC(=O)C5NC(=O)C(CC(N)=O)NC(=O)C(NC(=O)C(CC(C)C)NC)C(O)c5ccc(c(Cl)c5)O4)c4ccc(O)c(c4)-c4c(O)cc(O)cc4C(C(=O)O)NC3=O)OC(CO)C(O)C2O)OC(C)C1O` (stereo not drawn) [Compound 3, N^van --(1-oxo-n-octyl)vancomycin], for which the MIC entry is “-- (not active at 128 mcg/ml)” against Escherichia coli N10; 2 µg/mL (≈ 1.27 µM) in experiment [1]; “-- (not active at 128 mcg/ml)” in experiment [2]; “-- (not active at 128 mcg/ml)” in experiment [3]; “-- (not active at 128 mcg/ml)” in [4]; 8 µg/mL (≈ 5.08 µM) in experiment [5]. The MIC in [6] was 2 µg/mL (≈ 1.27 µM); in experiment [7], 2 µg/mL (≈ 1.27 µM); in [8], 4 µg/mL (≈ 2.54 µM); in experiment [9], 0.5 µg/mL (≈ 0.317 µM); against Escherichia coli TEM, “-- (not active at 128 mcg/ml)”; in experiment [10], “-- (not active at 128 mcg/ml)”. Further, the MIC result with Escherichia coli EC14 is “-- (not active at 128 mcg/ml)”; in experiment [11], “-- (not active at 128 mcg/ml)”; in [12], 2 µg/mL (≈ 1.27 µM); in experiment [13], 1 µg/mL (≈ 0.635 µM); in [14], 2 µg/mL (≈ 1.27 µM); in experiment [15] it was 0.5 µg/mL (≈ 0.317 µM). Moreover, the ED50 is listed as 4.4 mg/kg/2 in the experiment with Streptococcus pyogenes, 6.9 mg/kg/2 with Staphylococcus aureus and 4.8 mg/kg/2 in the experiment on Streptococcus pneumoniae.
